Laboratory results published in PubChem BioAssay AID248 (DTP/NCI, 2004).
Values joined by “and” are separate entries in the source; they are usually repeats but may differ in a detail not shown here. Identical values can stand only once. Inconclusive results and toxic doses are left out. Cut-off read from the data, not from the text of the source: active = T/C of 150% or more; inactive = T/C below 125%.

Test system: L1210 leukemia ip in BDF1 mice, survival T/C
Test: NCI In Vivo Anticancer Drug Screen. Data for tumor model L1210 Leukemia (intraperitoneal) in B6D2F1 (BDF1) mice
Conditions: endpoint: mean survival time, higher = longer survival
How it was run: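 Transplantable tumor model; survival measured in treated vs vehicle control mice. Value = treated/control.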

[1] = dose: 25.0 mg/kg/injection, schedule: Q04DX003 (ip), vehicle: saline with Tween-80
[2] = dose: 50.0 mg/kg/injection, schedule: Q04DX003 (ip), vehicle: saline with Tween-80
[3] = dose: 100.0 mg/kg/injection, schedule: Q04DX003 (ip), vehicle: saline with Tween-80
[4] = dose: 100.0 mg/kg/injection, schedule: Q04DX002 (ip), vehicle: Klucel (hydroxypropylcellulose) (HPC)
[5] = dose: 200.0 mg/kg/injection, schedule: Q04DX002 (ip), vehicle: Klucel (hydroxypropylcellulose) (HPC)
[6] = dose: 400.0 mg/kg/injection, schedule: Q04DX002 (ip), vehicle: Klucel (hydroxypropylcellulose) (HPC)

Measured: T/C

COc1ccc2c(ccc[n+]2C)c1
inactive: dose: 11.0 mg/kg/injection, schedule: Q01DX009 (ip), vehicle: saline 103 % of control | dose: 12.5 mg/kg/injection, schedule: Q01DX009 (ip), vehicle: saline 102 % of control | dose: 12.5 mg/kg/injection, schedule: Q04DX003 (ip), vehicle: saline with Tween-80 96 % of control | dose: 16.5 mg/kg/injection, schedule: Q01DX009 (ip), vehicle: saline 117 % of control | dose: 25.0 mg/kg/injection, schedule: Q01DX009 (ip), vehicle: saline 109 % of control and 110 % of control | [1] 102 % of control | dose: 33.0 mg/kg/injection, schedule: Q01DX009 (ip), vehicle: saline 113 % of control | dose: 37.5 mg/kg/injection, schedule: Q01DX009 (ip), vehicle: saline 115 % of control | dose: 50.0 mg/kg/injection, schedule: Q01DX009 (ip), vehicle: saline 115 % of control and 87 % of control | [2] 100 % of control | dose: 75.0 mg/kg/injection, schedule: Q01DX001 (ip), vehicle: carboxymethylcellulose (CMC) 108 % of control

CC(=O)c1cc2cc(Cl)cc(Cl)c2oc1=O
inactive: dose: 100.0 mg/kg/injection, schedule: Q01DX009 (ip), vehicle: saline with Tween-80 94 % of control | dose: 100.0 mg/kg/injection, schedule: Q04DX002 (ip), vehicle: saline with Tween-80 95 % of control | dose: 200.0 mg/kg/injection, schedule: Q01DX009 (ip), vehicle: saline with Tween-80 91 % of control | dose: 200.0 mg/kg/injection, schedule: Q04DX002 (ip), vehicle: saline with Tween-80 100 % of control | dose: 400.0 mg/kg/injection, schedule: Q04DX002 (ip), vehicle: saline with Tween-80 92 % of control

O=S(=O)(/C=C\c1ccccc1)/C=C/c1ccccc1
inactive: [1] 96 % of control | [2] 94 % of control | [3] 92 % of control

COCCN(/N=N/c1nc[nH]c1C(N)=O)C(C)(C)C
inactive: dose: 50.0 mg/kg/injection, schedule: Q01DX001 (ip), vehicle: water 100 % of control | dose: 50.0 mg/kg/injection, schedule: Q04DX003 (ip), vehicle: water 101 % of control | dose: 100.0 mg/kg/injection, schedule: Q01DX001 (ip), vehicle: water 97 % of control | dose: 100.0 mg/kg/injection, schedule: Q04DX003 (ip), vehicle: water 101 % of control | dose: 200.0 mg/kg/injection, schedule: Q01DX001 (ip), vehicle: water 92 % of control | dose: 200.0 mg/kg/injection, schedule: Q04DX003 (ip), vehicle: water 102 % of control | dose: 400.0 mg/kg/injection, schedule: Q01DX001 (ip), vehicle: water 97 % of control | dose: 400.0 mg/kg/injection, schedule: Q04DX003 (ip), vehicle: water 96 % of control

CC(=O)Nc1ccc(NS(=O)(=O)O)cc1
inactive: dose: 50.0 mg/kg/injection, schedule: Q01DX001 (ip), vehicle: saline 96 % of control | dose: 100.0 mg/kg/injection, schedule: Q01DX001 (ip), vehicle: saline 96 % of control | dose: 200.0 mg/kg/injection, schedule: Q01DX001 (ip), vehicle: saline 93 % of control | dose: 400.0 mg/kg/injection, schedule: Q01DX001 (ip), vehicle: saline 96 % of control

O=C1NCCN1c1ccccn1
inactive: dose: 100.0 mg/kg/injection, schedule: Q04DX003 (ip), vehicle: saline 100 % of control | dose: 200.0 mg/kg/injection, schedule: Q04DX003 (ip), vehicle: saline 97 % of control

CCOC(=O)C(O)C(Cl)(CC)c1ccccc1 (centres undefined)
inactive: [4] 95 % of control | [5] 100 % of control | [6] 122 % of control

Cc1sc2c(c1-c1ccccc1)C(=O)CCCN2
inactive: [3] 94 % of control | dose: 200.0 mg/kg/injection, schedule: Q04DX003 (ip), vehicle: saline with Tween-80 100 % of control | dose: 400.0 mg/kg/injection, schedule: Q04DX003 (ip), vehicle: saline with Tween-80 100 % of control

NOC(=O)c1ccc([N+](=O)[O-])cc1
inactive: [4] 94 % of control | [5] 94 % of control | [6] 94 % of control

CC(=O)C1(O)Cc2c(O)c3c(c(O)c2C(OC2CC(N)C(O)C(C)O2)C1)C(=O)c1ccccc1C3=O (centres undefined)
inactive: dose: 0.1 mg/kg/injection, schedule: Q01DX009 (ip), vehicle: saline 119 % of control | dose: 0.8 mg/kg/injection, schedule: Q01DX009 (ip), vehicle: saline 92 % of control
